Experimental data published in publication PMC10584882 (Communications Biology, 2023).
Where “and” joins values, the source holds several entries; their conditions need not be identical. Equal entries are not always repeated. Where two headings read alike, the source gives them in different places.

What was measured:
SARS-CoV-2 [1] = test: Viral loading determination via RT-qPCR in LC-HK2 cells; format: cell-based; settings: Severe acute respiratory syndrome coronavirus 2; LC-HK2, RT-qPCR, 72 h post-infection; read-out: Viral titer EC50
SARS-CoV-2 [2] = test: Cytopathic effect inhibition assay in VERO-CCL81 cells; format: cell-based; settings: for CPE inhibition (%): VERO CCL81
SARS-CoV-2 [3] = test: Cytopathic effect inhibition assay in LC-HK2 cells; format: cell-based; settings: for CPE inhibition (%): LC-HK2
VERO-CCL81 cells = test: Cell viability assay (CellTiter-Glo), VERO-CCL81; format: cell-based; settings: for Cell viability (% control): VERO CCL81, 72 h, replicates of experiments 1 and 2
Experimental: (§1) VERO-CCL81 was seeded in 96-well plates at a density of 1.5×10^4 cells/well, while LC-HK2 was seeded at a density of 3×10^4 cells/well, following 24 h incubation at 37 °C and 5% CO2 atmosphere. The cell culture media was replaced by serial dilutions of the compounds and the cell viability was determined 72 h post-treatment via CellTiter-Glo® Luminescent Cell Viability Assay (Promega), following the manufacturer’s instructions. Luminescent signal was recorded using a CLARIOstar multi-mode microplate reader (BMG Labtech, Germany). Graphs were generated using GraphPad Prism software version 8.0 (La Jolla, CA, USA, www.graphpad.com). Samples deemed to be technical failures and extreme outlier were removed.

LC-HK2 cells = test: Cell viability assay (CellTiter-Glo), LC-HK2; format: cell-based, human; settings: for Cell viability (% control): LC-HK2, 72 h, replicates
Experimental: as §1

`CCCC[C@@H](C=O)NC(=O)[C@H](CC(C)C)NC(=O)OCc1ccccc1` [Calpeptin, reference compound] was tested, and the EC50 (SARS-CoV-2 [1]) was 1700 nM, the inhibition at 0.3125 µM (SARS-CoV-2 [2]; Severe acute respiratory syndrome coronavirus 2, VERO CCL81, 0.3125 μM, two experiments, read-out: CPE inhibition (%)) was 26.9% and the inhibition at 0.625 µM (SARS-CoV-2 [2]; Severe acute respiratory syndrome coronavirus 2, VERO CCL81, 0.625 μM, two experiments, read-out: CPE inhibition (%)) was 31.8%. For the same compound, the inhibition at 1.25 µM (SARS-CoV-2 [2]; Severe acute respiratory syndrome coronavirus 2, VERO CCL81, 1.25 μM, two experiments, read-out: CPE inhibition (%)) was 41.2%, the inhibition at 2.5 µM (SARS-CoV-2 [2]; Severe acute respiratory syndrome coronavirus 2, VERO CCL81, 2.5 μM, two experiments, read-out: CPE inhibition (%)) was 49.3% and the inhibition at 5 µM (SARS-CoV-2 [2]; Severe acute respiratory syndrome coronavirus 2, VERO CCL81, 5 μM, two experiments, read-out: CPE inhibition (%)) was 61.9%. The inhibition at 10 µM (SARS-CoV-2 [2]; Severe acute respiratory syndrome coronavirus 2, VERO CCL81, 10 μM, two experiments, read-out: CPE inhibition (%)) was 64.6%, the EC50 (SARS-CoV-2 [2]; Severe acute respiratory syndrome coronavirus 2, VERO-CCL81, CellTiter-Glo, 48 h post-infection, read-out: CPE inhibition EC50) was 400 nM and the “CPE inhibition (%)” value (SARS-CoV-2 [2]; 0.1563 μM, two experiments) was 12.75% and 5.21%. For the same compound, the “CPE inhibition (%)” value (SARS-CoV-2 [2]; 0.3125 μM, two experiments) was 21.14%, the “CPE inhibition (%)” value (SARS-CoV-2 [2]; 0.625 μM, two experiments) was 29.81% and the “CPE inhibition (%)” value (SARS-CoV-2 [2]; 1.25 μM, two experiments) was 49.13%. For the same compound, the “CPE inhibition (%)” value (SARS-CoV-2 [2]; 2.5 μM, two experiments) was 33.89%, the “CPE inhibition (%)” value (SARS-CoV-2 [2]; 5 μM, two experiments) was 61.52% and the “CPE inhibition (%)” value (SARS-CoV-2 [2]; 10 μM, two experiments) was 53.9%. The “CPE inhibition (%)” value (SARS-CoV-2 [3]; 0.0000000001 μM, 1e-10 µM) was 6.04%, the “CPE inhibition (%)” value (SARS-CoV-2 [3]; 0.00000001 μM, 10 fM) was 8.96% and the “CPE inhibition (%)” value (SARS-CoV-2 [3]; 0.0000001 μM, 100 fM) was 9.11%. The “CPE inhibition (%)” value (SARS-CoV-2 [3]; 0.001 μM) was 0.77%, the “CPE inhibition (%)” value (SARS-CoV-2 [3]; 0.01 μM) was 24.54% and the “CPE inhibition (%)” value (SARS-CoV-2 [3]; 0.1 μM) was 36.51%. The “CPE inhibition (%)” value (SARS-CoV-2 [3]; 1 μM) was 50.4%, the “CPE inhibition (%)” value (SARS-CoV-2 [3]; 10 μM) was 59.73% and the inhibition at 1e-12 µM (SARS-CoV-2 [3]; Severe acute respiratory syndrome coronavirus 2, LC-HK2, 0.000000000001 μM (first of two lines so printed, r18), read-out: CPE inhibition (%)) was 0%. For the same compound, the inhibition at 1e-12 µM (SARS-CoV-2 [3]; Severe acute respiratory syndrome coronavirus 2, LC-HK2, 0.000000000001 μM (second line, r19), read-out: CPE inhibition (%)) was 0%, the inhibition at 1e-11 µM (SARS-CoV-2 [3]; Severe acute respiratory syndrome coronavirus 2, LC-HK2, 0.00000000001 μM, read-out: CPE inhibition (%)) was 0% and the inhibition at 1 fM (SARS-CoV-2 [3]; Severe acute respiratory syndrome coronavirus 2, LC-HK2, 0.000000001 μM, read-out: CPE inhibition (%)) was 0%. For the same compound, the inhibition at 10 pM (SARS-CoV-2 [3]; Severe acute respiratory syndrome coronavirus 2, LC-HK2, 0.00001 μM, read-out: CPE inhibition (%)) was 0%, the inhibition at 0.0001 µM (SARS-CoV-2 [3]; Severe acute respiratory syndrome coronavirus 2, LC-HK2, 0.0001 μM, read-out: CPE inhibition (%)) was 0% and the inhibition at 0.01 µM (SARS-CoV-2 [3]; Severe acute respiratory syndrome coronavirus 2, LC-HK2, 0.01 μM, read-out: CPE inhibition (%)) was 19%. For the same compound, the inhibition at 0.1 µM (SARS-CoV-2 [3]; Severe acute respiratory syndrome coronavirus 2, LC-HK2, 0.1 μM, read-out: CPE inhibition (%)) was 24.4%, the inhibition at 1 µM (SARS-CoV-2 [3]; Severe acute respiratory syndrome coronavirus 2, LC-HK2, 1 μM, read-out: CPE inhibition (%)) was 60.8% and the inhibition at 10 µM (SARS-CoV-2 [3]; Severe acute respiratory syndrome coronavirus 2, LC-HK2, 10 μM, read-out: CPE inhibition (%)) was 52.8%. The EC50 (SARS-CoV-2 [3]; Severe acute respiratory syndrome coronavirus 2, LC-HK2, CellTiter-Glo, 72 h post-infection, read-out: CPE inhibition EC50) was 60 nM, the “Cell viability (% control)” value (VERO-CCL81 cells; 0.0781 μM) was 94.74 % control and 101.25 % control and 101.91 % control and the “Cell viability (% control)” value (VERO-CCL81 cells; 0.1563 μM) was 97.56 % control and 99.32 % control and 100.01 % control. For the same compound, the “Cell viability (% control)” value (VERO-CCL81 cells; 0.3125 μM) was 82.19 % control and 89.43 % control and 92.71 % control and 95.68 % control and 100.03 % control and 106.22 % control, the “Cell viability (% control)” value (VERO-CCL81 cells; 0.625 μM) was 82.29 % control and 95.76 % control and 97.52 % control and 95.98 % control and 103.97 % control and 109.96 % control and the “Cell viability (% control)” value (VERO-CCL81 cells; 1.25 μM) was 89.05 % control and 94.79 % control and 98.25 % control and 97.91 % control and 104.77 % control and 107.22 % control. For the same compound, the “Cell viability (% control)” value (VERO-CCL81 cells; 2.5 μM) was 86.26 % control and 94.8 % control and 103.32 % control and 94.24 % control and 103.27 % control and 108.67 % control, the “Cell viability (% control)” value (VERO-CCL81 cells; 5 μM) was 90.56 % control and 101.72 % control and 106.83 % control and 95.97 % control and 102.4 % control and 105.71 % control and the “Cell viability (% control)” value (VERO-CCL81 cells; 10 μM) was 85.37 % control and 97.81 % control and 103.34 % control and 84.83 % control and 98.42 % control and 92.92 % control. The “cytotoxicity (in words)” value (VERO-CCL81 cells; VERO-CCL81, 72 h) was “no cytotoxicity up to low micromolar concentrations”, the “cytotoxicity (in words)” value (LC-HK2 cells; LC-HK2, 72 h) was “no cytotoxicity up to low micromolar concentrations” and the “Cell viability (% control)” value (LC-HK2 cells; 0.0006 μM) was 102.39 % control and 97.09 % control and 90.2 % control. For the same compound, the “Cell viability (% control)” value (LC-HK2 cells; 0.0012 μM) was 105.44 % control and 96.04 % control and 89.58 % control, the “Cell viability (% control)” value (LC-HK2 cells; 0.0024 μM) was 109.38 % control and 90.68 % control and 83.12 % control and the “Cell viability (% control)” value (LC-HK2 cells; 0.0049 μM) was 106.45 % control and 86.68 % control and 80.82 % control. For the same compound, the “Cell viability (% control)” value (LC-HK2 cells; 0.0098 μM) was 103.61 % control and 82.95 % control and 76.92 % control, the “Cell viability (% control)” value (LC-HK2 cells; 0.0195 μM) was 100.9 % control and 86.53 % control and 77.59 % control and the “Cell viability (% control)” value (LC-HK2 cells; 0.0391 μM) was 106.77 % control and 84.3 % control and 75.79 % control. For the same compound, the “Cell viability (% control)” value (LC-HK2 cells; 0.0781 μM) was 97.38 % control and 80.51 % control and 79.02 % control and 97.54 % control and 99.61 % control, the “Cell viability (% control)” value (LC-HK2 cells; 0.1563 μM) was 92.74 % control and 97.96 % control and 106.67 % control and 94.71 % control and 97.7 % control and 98.23 % control and the “Cell viability (% control)” value (LC-HK2 cells; 0.3125 μM) was 85.53 % control and 96.17 % control and 104.18 % control and 94.18 % control and 98.15 % control and 95.62 % control. The “Cell viability (% control)” value (LC-HK2 cells; 0.625 μM) was 92.03 % control and 97.64 % control and 102.17 % control and 95.74 % control and 98.42 % control and 100.55 % control, the “Cell viability (% control)” value (LC-HK2 cells; 1.25 μM) was 89.04 % control and 94.62 % control and 99.72 % control and 93.66 % control and 97.57 % control and 100.65 % control and the “Cell viability (% control)” value (LC-HK2 cells; 2.5 μM) was 87.58 % control and 93.98 % control and 97.34 % control and 91.87 % control and 96.78 % control and 96.3 % control. The “Cell viability (% control)” value (LC-HK2 cells; 5 μM) was 84.13 % control and 88.53 % control and 93.5 % control and 84.79 % control and 90.37 % control and 89.81 % control, the “Cell viability (% control)” value (LC-HK2 cells; 10 μM) was 82.98 % control and 84.95 % control and 87.98 % control and 79.13 % control and 81.86 % control and 83.76 % control and the “Cell viability (% control)” value (LC-HK2 cells; 100 μM) was 28.28 % control and 43.21 % control and 44.92 % control.
